Experimental data as given in publication PMC12372887, “Mechanism and cellular actions of the potent AMPK inhibitor BAY-3827” (Science Advances, 2025).

Legend:
[1] = target: CHK1 (Homo sapiens, UniProt O14757); assay: Kinase panel (140 human kinases); assay type: biochemical
Procedure, shortened: (§1)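 Radioactive [γ-^33P]ATP filter-binding assay, run in duplicate; compounds tested at 0.1 μM and at 1 μM (BAY-3827). ATP at 5, 20 or 50 μM, chosen at or below each enzyme's Km for ATP. Values are mean remaining kinase activity (%) with SD.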

[2] = target: CHK2 (Homo sapiens, UniProt O96017); assay: Kinase panel (140 human kinases); assay type: biochemical
Procedure, shortened: as §1

[3] = target: ULK2 (Homo sapiens, UniProt Q8IYT8); assay: Kinase panel (140 human kinases); assay type: biochemical
Procedure, shortened: as §1

[4] = target: DYRK3 (Homo sapiens, UniProt O43781); assay: Kinase panel (140 human kinases); assay type: biochemical
Procedure, shortened: as §1

[5] = target: PAK5 (Homo sapiens, UniProt Q9P286); assay: Kinase panel (140 human kinases); assay type: biochemical
Procedure, shortened: as §1

[6] = target: MNK2 (Homo sapiens, UniProt Q9HBH9); assay: Kinase panel (140 human kinases); assay type: biochemical
Procedure, shortened: as §1

[7] = target: PAK2 (Homo sapiens, UniProt Q13177); assay: Kinase panel (140 human kinases); assay type: biochemical
Procedure, shortened: as §1

[8] = target: p38g MAPK (Homo sapiens, UniProt P53778); assay: Kinase panel (140 human kinases); assay type: biochemical
Procedure, shortened: as §1

[9] = tested on: AMPKα1α2−/− DKO primary hepatocytes; assay: Lipogenesis assay ([14C]-acetate incorporation into fatty acids); assay type: cell-based, mouse
Method: Mouse hepatocytes were isolated by collagenase perfusion as previously described ([47]). Hepatocytes were seeded in medium Eagle-199 (MEM-199) (#41150, Thermo Fisher Scientific) containing penicillin G (100 U/ml), streptomycin (100 μg/ml), and 10% (v/v) fetal bovine serum (FBS). Hepatocytes were left for attachment (3 to 4 hours) and serum-starved overnight at 37°C with 5% CO2 in MEM-199 supplemented with penicillin G (100 U/ml), streptomycin (100 μg/ml), 10 nM insulin, and 100 nM dexamethasone. […] Cells were then harvested in 0.5 ml of phosphate-buffered saline (PBS), transferred into 1 ml of 40% KOH and 2 ml of methanol followed by 1-hour incubation at 80°C. Lipids were […] by acidifying the samples in 37% HCl and extracted with petroleum ether. Extracts were allowed to evaporate to dryness and then dissolved in Ultima Gold scintillation fluid for determination of [^14C]-acetate incorporation into lipids.

[10] = tested on: pSer79-ACC1 in U2OS cells; assay: HTRF assay of Ser79-ACC1 phosphorylation in U2OS cells; assay type: cell-based, human; settings: for IC50: Homo sapiens, U2OS
Method: Human osteosarcoma U2OS WT cells were obtained from John Rouse (MRC Protein Phosphorylation and Ubiquitylation Unit, University of Dundee) and were cultured in DMEM high glucose + GlutaMAX Supplement, pyruvate (Thermo Fisher Scientific, catalog no. 31966-021) containing penicillin G (100 U/ml), streptomycin (100 μg/ml), and 10% (v/v) FBS seeding with 50,000 cells per well in a 50-μl volume in culture 96-well cell culture plates (Corning Incorporated costar, #3599). The next day, the media were changed to 50 μl of serum-free media, and 50 μl of serum-free media containing BAY-3827 or BAY-974 was dispensed and left to incubate at 37°C for 30 min. […] HTRF assays using either phospho-Ser^79-ACC1 kit (Revvity, #64ACCPEG) or phospho-Thr^172-AMPK kit (Revvity, #64AMPKPEG) were performed in triplicate in HTRF 96-well low volume white plates (Revvity, #66PL96001) following manufacturer’s instructions. Sealed plates incubated overnight in darkness conditions were scanned at room temperature in Multimode Plate Reader EnVision (PerkinElmer) machine following HTRF setup recommendations for EnVision (Revvity), equipped with a top mirror LANCE/DELFIA single mirror (#412), a UV2 (TRF) 320 excitation filter (#111), emission filter APC 665 (#205), and second emission filter Europium 615 (#203), with a 2000-μs cycle and 60-μs delay, with the number of flashes set to 100 as well as for the 2nd detector. Results were viewed in EnVision Manager software (version 1.13.3009.1401) where 665/615 ratios were calculated, and data were normalized to control condition as %. All assay ratios between control lysate signal/nonspecific signal were greater than 2 as expected of a successful assay following the manufacturer’s instructions. Data were visualized in GraphPad Prism v10.

Chain of CHK2 (O96017 whole entry): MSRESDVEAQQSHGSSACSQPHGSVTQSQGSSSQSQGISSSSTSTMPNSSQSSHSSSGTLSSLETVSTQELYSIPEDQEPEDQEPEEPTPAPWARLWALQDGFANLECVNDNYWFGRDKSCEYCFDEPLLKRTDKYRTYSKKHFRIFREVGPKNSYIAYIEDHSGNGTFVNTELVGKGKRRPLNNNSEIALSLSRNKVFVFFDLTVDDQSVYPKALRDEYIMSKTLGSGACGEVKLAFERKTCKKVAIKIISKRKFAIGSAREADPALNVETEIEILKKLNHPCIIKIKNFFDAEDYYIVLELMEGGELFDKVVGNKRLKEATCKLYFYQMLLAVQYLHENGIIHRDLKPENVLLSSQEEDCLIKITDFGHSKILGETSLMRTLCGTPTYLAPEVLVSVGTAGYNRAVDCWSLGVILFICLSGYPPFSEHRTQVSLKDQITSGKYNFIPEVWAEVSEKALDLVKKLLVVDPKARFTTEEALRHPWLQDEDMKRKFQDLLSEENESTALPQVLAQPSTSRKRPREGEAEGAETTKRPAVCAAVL
Chain of MNK2 (Q9HBH9 whole entry): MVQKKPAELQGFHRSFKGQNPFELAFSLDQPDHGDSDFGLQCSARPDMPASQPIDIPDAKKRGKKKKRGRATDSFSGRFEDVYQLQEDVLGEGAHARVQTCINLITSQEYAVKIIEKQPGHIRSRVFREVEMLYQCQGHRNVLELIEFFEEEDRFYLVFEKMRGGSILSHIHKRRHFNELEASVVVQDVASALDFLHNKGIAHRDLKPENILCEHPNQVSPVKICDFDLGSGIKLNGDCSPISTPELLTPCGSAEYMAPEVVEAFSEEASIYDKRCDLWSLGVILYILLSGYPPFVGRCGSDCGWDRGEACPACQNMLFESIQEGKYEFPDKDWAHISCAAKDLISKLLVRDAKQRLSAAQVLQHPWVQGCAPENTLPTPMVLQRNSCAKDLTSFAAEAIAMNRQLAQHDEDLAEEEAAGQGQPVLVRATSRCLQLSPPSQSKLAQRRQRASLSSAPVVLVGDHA
Chain of CHK1 (O14757 whole entry): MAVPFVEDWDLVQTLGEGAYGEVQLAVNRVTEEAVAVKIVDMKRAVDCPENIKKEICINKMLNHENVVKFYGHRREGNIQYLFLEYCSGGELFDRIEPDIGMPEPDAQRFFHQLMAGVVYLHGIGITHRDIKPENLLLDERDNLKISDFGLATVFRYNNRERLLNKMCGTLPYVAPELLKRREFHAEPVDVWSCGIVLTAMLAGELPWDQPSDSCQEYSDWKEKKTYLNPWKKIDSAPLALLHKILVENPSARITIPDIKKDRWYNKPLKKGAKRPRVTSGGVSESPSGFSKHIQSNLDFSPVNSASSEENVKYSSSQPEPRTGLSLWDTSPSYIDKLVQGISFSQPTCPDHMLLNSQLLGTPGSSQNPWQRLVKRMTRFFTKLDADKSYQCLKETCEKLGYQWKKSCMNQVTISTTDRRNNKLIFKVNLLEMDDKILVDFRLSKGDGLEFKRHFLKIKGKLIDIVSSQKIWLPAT
Chain of PAK5 (Q9P286 whole entry): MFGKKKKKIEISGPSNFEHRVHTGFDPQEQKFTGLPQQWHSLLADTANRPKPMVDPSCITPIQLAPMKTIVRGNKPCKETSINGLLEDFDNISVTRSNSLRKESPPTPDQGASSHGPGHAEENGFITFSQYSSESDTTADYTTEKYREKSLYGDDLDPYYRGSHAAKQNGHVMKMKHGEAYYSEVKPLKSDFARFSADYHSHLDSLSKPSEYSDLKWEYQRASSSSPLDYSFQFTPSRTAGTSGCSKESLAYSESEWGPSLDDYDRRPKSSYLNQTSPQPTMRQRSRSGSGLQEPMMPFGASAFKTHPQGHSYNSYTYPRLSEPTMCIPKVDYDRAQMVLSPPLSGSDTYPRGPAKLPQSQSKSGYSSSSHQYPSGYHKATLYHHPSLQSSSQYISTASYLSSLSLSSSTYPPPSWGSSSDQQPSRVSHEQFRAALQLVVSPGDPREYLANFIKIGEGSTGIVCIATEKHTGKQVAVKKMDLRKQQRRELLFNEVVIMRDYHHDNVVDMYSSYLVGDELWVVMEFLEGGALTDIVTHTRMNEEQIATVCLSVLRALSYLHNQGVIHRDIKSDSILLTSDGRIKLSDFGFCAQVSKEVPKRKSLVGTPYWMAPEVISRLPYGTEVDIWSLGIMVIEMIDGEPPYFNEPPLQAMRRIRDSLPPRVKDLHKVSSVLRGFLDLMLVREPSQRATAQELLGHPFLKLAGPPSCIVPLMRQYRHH
Chain of ULK2 (Q8IYT8 whole entry): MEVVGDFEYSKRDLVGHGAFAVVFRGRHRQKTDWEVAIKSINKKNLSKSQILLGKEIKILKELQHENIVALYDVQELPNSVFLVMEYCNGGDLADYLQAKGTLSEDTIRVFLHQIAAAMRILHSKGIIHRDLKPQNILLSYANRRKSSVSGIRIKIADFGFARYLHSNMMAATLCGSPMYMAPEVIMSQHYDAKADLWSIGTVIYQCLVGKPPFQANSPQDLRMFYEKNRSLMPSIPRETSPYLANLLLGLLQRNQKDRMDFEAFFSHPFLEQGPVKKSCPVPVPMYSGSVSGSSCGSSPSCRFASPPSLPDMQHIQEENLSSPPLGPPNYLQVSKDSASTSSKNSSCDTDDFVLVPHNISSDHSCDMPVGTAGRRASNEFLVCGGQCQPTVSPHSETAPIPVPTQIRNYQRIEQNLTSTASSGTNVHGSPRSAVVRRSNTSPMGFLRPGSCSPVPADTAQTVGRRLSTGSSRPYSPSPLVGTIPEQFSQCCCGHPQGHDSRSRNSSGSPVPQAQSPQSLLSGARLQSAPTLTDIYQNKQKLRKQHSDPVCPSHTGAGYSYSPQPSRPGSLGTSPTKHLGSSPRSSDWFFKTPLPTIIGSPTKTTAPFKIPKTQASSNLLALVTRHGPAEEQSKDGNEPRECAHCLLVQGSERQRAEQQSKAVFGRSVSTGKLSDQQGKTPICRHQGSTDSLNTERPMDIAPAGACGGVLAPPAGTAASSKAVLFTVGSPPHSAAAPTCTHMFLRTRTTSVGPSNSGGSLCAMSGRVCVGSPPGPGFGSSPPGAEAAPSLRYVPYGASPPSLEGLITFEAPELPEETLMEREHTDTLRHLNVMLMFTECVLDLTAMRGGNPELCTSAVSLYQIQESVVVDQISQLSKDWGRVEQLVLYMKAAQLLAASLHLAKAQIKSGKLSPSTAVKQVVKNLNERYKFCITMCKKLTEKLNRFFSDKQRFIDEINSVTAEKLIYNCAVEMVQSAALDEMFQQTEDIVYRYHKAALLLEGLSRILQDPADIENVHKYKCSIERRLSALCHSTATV
Chain of p38g MAPK (P53778 whole entry): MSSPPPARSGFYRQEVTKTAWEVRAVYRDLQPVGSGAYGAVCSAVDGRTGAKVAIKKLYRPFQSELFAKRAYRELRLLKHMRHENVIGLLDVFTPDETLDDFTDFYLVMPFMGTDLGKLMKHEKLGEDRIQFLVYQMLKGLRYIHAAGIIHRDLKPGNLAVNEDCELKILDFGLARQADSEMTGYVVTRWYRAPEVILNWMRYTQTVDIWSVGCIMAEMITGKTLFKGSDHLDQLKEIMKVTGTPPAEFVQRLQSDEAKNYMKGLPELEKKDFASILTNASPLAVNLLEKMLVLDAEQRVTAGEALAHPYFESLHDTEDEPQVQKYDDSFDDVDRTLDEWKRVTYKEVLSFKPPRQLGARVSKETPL
Chain of PAK2 (Q13177 whole entry): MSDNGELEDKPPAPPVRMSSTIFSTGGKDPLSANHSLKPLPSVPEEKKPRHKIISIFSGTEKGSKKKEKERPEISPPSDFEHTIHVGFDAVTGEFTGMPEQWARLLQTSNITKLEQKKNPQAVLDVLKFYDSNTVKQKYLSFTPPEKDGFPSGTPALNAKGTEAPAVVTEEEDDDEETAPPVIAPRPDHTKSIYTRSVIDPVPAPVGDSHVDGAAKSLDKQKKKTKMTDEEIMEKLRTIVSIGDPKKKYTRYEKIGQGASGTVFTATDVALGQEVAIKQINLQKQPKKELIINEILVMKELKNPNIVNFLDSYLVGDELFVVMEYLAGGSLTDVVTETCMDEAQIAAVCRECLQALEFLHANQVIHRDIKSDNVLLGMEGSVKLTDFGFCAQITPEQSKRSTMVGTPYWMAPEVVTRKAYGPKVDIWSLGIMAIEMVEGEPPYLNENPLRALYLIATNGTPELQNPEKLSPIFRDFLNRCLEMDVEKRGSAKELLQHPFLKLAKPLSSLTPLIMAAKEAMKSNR
Chain of DYRK3 (O43781 whole entry): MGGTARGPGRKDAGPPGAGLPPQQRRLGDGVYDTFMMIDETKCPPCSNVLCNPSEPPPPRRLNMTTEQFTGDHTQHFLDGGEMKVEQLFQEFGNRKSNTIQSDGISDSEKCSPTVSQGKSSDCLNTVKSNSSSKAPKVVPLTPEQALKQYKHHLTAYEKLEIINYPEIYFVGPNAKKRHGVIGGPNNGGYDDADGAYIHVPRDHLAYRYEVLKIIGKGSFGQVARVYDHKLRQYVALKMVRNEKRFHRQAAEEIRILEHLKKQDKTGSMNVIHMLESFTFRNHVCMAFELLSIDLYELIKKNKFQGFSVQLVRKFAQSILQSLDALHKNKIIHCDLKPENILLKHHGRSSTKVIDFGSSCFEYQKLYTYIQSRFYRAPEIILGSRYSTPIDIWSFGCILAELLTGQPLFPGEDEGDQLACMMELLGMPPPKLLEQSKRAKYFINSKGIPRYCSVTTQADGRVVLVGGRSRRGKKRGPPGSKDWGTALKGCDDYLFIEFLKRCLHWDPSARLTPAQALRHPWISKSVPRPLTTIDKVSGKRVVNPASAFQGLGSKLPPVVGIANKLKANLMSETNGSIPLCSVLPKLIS

Work on `CCc1ccccc1C(=O)Nc1n[nH]c2c(C)c(F)c(C3C(C#N)=C(C)N(C)C(C)=C3C#N)cc12` [BAY-3827, N-[5-(3,5-dicyano-1,2,6-trimethyl-4H-pyridin-4-yl)-6-fluoro-7-methyl-1H-indazol-3-yl]-2-ethylbenzamide] yielded a remaining activity at 0.1 µM [1] of 66%, a remaining activity at 0.1 µM [2] of 93% and a remaining activity at 0.1 µM [3] of 96%. It also gave a remaining activity at 0.1 µM [4] of 97%, a remaining activity at 0.1 µM [5] of 100% and a remaining activity at 0.1 µM [6] of 99%. The remaining activity at 0.1 µM [7] was 88%, the remaining activity at 0.1 µM [8] was 90% and the effect on lipogenesis [9] was “no effect”. For the same compound, the IC50 ([10]; + MK-8722 (10 μM)) was 6.36 µM and the IC50 ([10]; without MK-8722) was 0.93 µM.

For `CC1=C(C#N)C(c2ccc3c(c2)c(NC(=O)c2ccccc2C)nn3C)C(C#N)=C(C)N1` [BAY-974, N-[5-(3,5-dicyano-2,6-dimethyl-1,4-dihydropyridin-4-yl)-1-methylindazol-3-yl]-2-methylbenzamide], the remaining activity at 0.1 µM [1] was 78%, the remaining activity at 0.1 µM [2] was 87% and the remaining activity at 0.1 µM [3] was 60%. The remaining activity at 0.1 µM [4] was 83%, the remaining activity at 0.1 µM [5] was 82% and the remaining activity at 0.1 µM [6] was 98%. The remaining activity at 0.1 µM [7] was 88%, the remaining activity at 0.1 µM [8] was 95% and the “inhibition of ACC1 phosphorylation” value ([10]; up to highest tested concentration of 100 μM) was “No inhibition”.
